According to publication PMC11267363, “Supramolecular Nanofibers Ameliorate Bleomycin‐Induced Pulmonary Fibrosis by Restoring Autophagy” (Advanced Science, 2024):
Ends that are not written are not given here.

Key:
TRB3/p62 PPIs = biological target: T1, TRB3/p62 PPIs (Homo sapiens, UniProt Q96RU7); test: Co-immunoprecipitation and CLSM co-localization of TRB3/p62 in activated MRC-5 cells; format: cell-based; conditions: TGF-β1 10 ng/mL, peptide 50 µM, 24 h
T1 construct: endogenous in cells
T1 sequence (Q96RU7 1-358): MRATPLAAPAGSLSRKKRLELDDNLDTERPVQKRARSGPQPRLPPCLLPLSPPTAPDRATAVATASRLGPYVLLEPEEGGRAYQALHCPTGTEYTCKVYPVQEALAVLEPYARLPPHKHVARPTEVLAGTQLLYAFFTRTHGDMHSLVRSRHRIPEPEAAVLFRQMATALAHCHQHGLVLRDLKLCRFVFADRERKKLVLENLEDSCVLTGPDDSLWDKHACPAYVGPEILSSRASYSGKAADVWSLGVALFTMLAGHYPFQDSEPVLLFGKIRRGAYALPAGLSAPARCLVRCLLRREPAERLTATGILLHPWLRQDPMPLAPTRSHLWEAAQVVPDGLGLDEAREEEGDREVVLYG
Protocol: The MRC‐5 cells were seeded on the CLSM dish at a density of 6 × 10^4 cells. After adherence, the solution containing TGF‐β1 (10 ng mL^−1), saline plus TGF‐β1 (10 ng mL^−1), A2 (50 µM) plus TGF‐β1 (10 ng mL^−1), Ac‐GFFY‐A2 (50 µM) TGF‐β1 (10 ng mL^−1), was added to incubate cells for 24 h, respectively. Then, the medium was removed and the cells were washed with cold PBS three times. The cells were fixed with 4% of Paraformaldehyde for 10 min at room temperature. Then, the solution was sucked away, and washed by cold PBS three times for a min each time. 0.1% Triton X‐100 solution was used to disrupt the cell membrane structure. […]
Total proteins were exacted from cells or tissues with RIPA lysis buffer (Beyotime Biotecnology). The protein concentration was measured using BCA Protein Assay Kit (Thermo Scientific). […] The protein transferred PVDF membranes were incubated with following primary antibodies at 4°C overnight: Then the membranes were incubated with horseradish peroxidase (HRP)-conjugated secondary antibodies at room temperature for 1 h, and protein signals were detected using an enhanced chemiluminescence kit (Pierce). […] The co -precipitates were resolved using SDS–PAGE and detected with immunoblotting. […]
Hydroxyproline content of right lung of each mouse was measured using a conventional hydroxyproline method as previously described.

[1] = Self-assembly in saline buffer (Tyndall path, TEM nanostructure); format: physicochemical
Excerpt: To verify our hypothesis, we utilized the self‐assembling factor (Acetyl‐Gly‐Phe‐Phe‐Tyr, Ac‐GFFY) to regulate the secondary conformation of A2 peptide (GGWLTRLLQTK) from p62 UBA domain binding with TRB3.^[ [16] ^] The self‐assembling factor Ac‐GFFY was covalently attached to the N‐terminal of peptide A2 to introduce Ac‐GFFY‐A2 (Figure 2a) as a modulator of the TRB3/p62 PPIs, non‐self‐assembling peptide A2 as the control group. Both of those peptide compounds were synthesized by standard solid phase peptide synthesis (SPPS), purified by reversed‐phase high‐performance liquid chromatography (HPLC), and identified through the high‐resolution mass spectrometry (HR‐MS, Figures S4 and S5, Supporting Information). The 0.5 wt% of peptide Ac‐GFFY‐A2 could observe an obvious “Tyndall path” in saline buffer (0.9% NaCl) after the heating‐cooling process (Figure S13, Supporting Information), compared with peptide A2 solution (0.5 wt%, saline buffer). The critical aggregation concentration (CAC) of those compounds was detected by dynamic light scattering. […] Furthermore, a transmission electron microscope (TEM) was used to observe the nanostructures formed by different compounds. Ac‐GFFY‐A2 could self‐assemble and form entangled nanofibers with a diameter of 8–12 nm (Figure 2b).
Transmission electron microscopy (TEM)
The samples (0.5 wt%, 10 μL) were loaded onto copper mesh coated with carbon.
After excess liquid was removed by a filter paper, 2% uranium acetate was used for dyeing the sample for 1 minute and the sample was dried overnight in a dryer. The samples were then imaged at 200 kV using a Tecnai G2 F20 system.
Circular dichroism (CD) spectrum
A BioLogic (MOS-450) system was used to record the circular dichroism spectrum.
Test wavelengths was in the range from 180 nm to 280 nm. […]
The CAC values were determined by dynamic light scattering (DLS). Solutions containing different concentration of compound in saline buffer were tested and the light scattering intensity was recorded for each concentration analyzed. […]

Question: Which “disruption of TRB3/p62 PPIs (co-IP, co-localization)” value (TRB3/p62 PPIs) does the source give for Ac-GFFYGGWLTRLLQTK-OH [Ac-GFFY-A2] here?
Answer: successfully inhibited the TRB3/p62 PPIs

Question: And the Tyndall path ([1]; 0.5 wt% in saline buffer (0.9% NaCl) after heating-cooling process)?
Answer: obvious

Question: What about the “diameter of entangled nanofibers (TEM)” value ([1]; 0.5 wt% in saline buffer after heating-cooling process, TEM) of the same substance?
Answer: 8–12 nm

Question: Which “disruption of TRB3/p62 PPIs (co-IP, co-localization)” value (TRB3/p62 PPIs) does the source give for GGWLTRLLQTK-OH [A2, reference compound] here?
Answer: minimal capacity to disrupt the TRB3/p62 PPIs

Question: And the “nanostructure in TEM image” value ([1]; 0.5 wt%, saline buffer, TEM)?
Answer: amorphous structures
